Assay [1] deals with human TAPP1 C-terminal PH domain (residues 95 to 404), GST fusion (Homo sapiens, UniProt Q9HB21). Briefly: Protein-lipid overlay. Type of assay: binding. Particulars: protein-lipid overlay (FIG. 2). The method, then: (§1) FIG. 2. Phosphoinositide binding properties of the novel PH domains. The ability of the indicated GST fusion proteins to bind a variety of phosphoinositides was analysed using a protein-lipid overlay. Serial dilutions of the indicated phosphoinositides (100 pmol, 50 pmol, 25 pmol, 12.5 pmol, 6.3 pmol, 3.1 pmol and 1.6 pmol) were spotted onto a nitrocellulose membranes which were then incubated with the purified GST fusion proteins. The membranes were washed and the GST-fusion proteins bound to the membrane by virtue of their interaction with lipid were detected using a GST antibody. A representative of at least 3 separate experiments carried out is shown.
Chain of human TAPP1 C-terminal PH domain (residues 95 to 404), GST fusion (Q9HB21 95-404): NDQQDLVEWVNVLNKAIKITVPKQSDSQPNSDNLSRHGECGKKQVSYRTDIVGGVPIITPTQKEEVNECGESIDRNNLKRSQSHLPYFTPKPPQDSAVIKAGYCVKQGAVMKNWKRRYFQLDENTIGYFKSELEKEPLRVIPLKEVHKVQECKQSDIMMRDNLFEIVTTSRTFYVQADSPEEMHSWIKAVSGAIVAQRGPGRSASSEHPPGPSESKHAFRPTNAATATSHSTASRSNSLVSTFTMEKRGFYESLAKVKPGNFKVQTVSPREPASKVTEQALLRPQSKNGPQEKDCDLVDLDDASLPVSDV
(§2) FIG. 4. Comparison of the phosphoinositide binding properties of the N-terminal and C-terminal PH domains of TAPP1 and TAPP2. The ability of wild type and mutant forms of full length (FL) and isolated N-terminal (NT) and C-terminal (CT) PH domains of TAPP1 and TAPP2 GST-fusion proteins to interact with phosphoinositides were analysed using a protein-lipid overlay. Serial dilutions of the indicated phosphoinositides (100 pmol, 50 pmol, 25 pmol, 12.5 pmol, 6.3 pmol, 3.1 pmol and 1.6 pmol) were spotted onto a nitrocellulose membrane which was then incubated with the indicated purified GST fusion proteins. The membranes were washed and the GST-fusion proteins bound to the membrane by virtue of their interactions with lipid were detected using a GST antibody. A representative experiment of three is shown. The isolated N-terminal PH domain of human TAPP1 comprises residues 1 to 147, the isolated C-terminal PH domain of human TAPP1 comprises residues 95 to 404, the isolated N-terminal PH domain of mouse TAPP2 comprises residues 1 to 131 and the isolated C-terminal PH of mouse TAPP2 comprises residues 174 to 425.
(§3) Protein-Lipid overlay. To assess the phosphoinositide binding properties of each PH domain, a protein-lipid overlay assay was performed using the GST fusion proteins as described previously. […] The membrane was blocked in 3% (by mass) fatty acid-free BSA in TBST (50 mM Tris/HCl pH 7.5, 150 mM NaCl and 0.1% Tween-20 (by vol) for lh. The membrane was then incubated overnight at 4° C. with gentle agitation in the same solution containing 0.2 μg/ml of the indicated GST fusion protein. The membranes were washed 6 times over 30 min in TBST and then incubated for 1 h with 1/1000 dilution of anti-GST monoclonal antibody (Sigma). The membranes were washed as before, then incubated for 1 h with 1/5000 dilution of anti-mouse-HRP conjugate (Pierce). Finally, the membranes were washed 12 times over 1 h in TBST and the GST-fusion protein bound to the membrane by virtue of its interaction with phospholipid was detected by enhanced chemiluminescence.

In assay [2] the target is T1, mouse TAPP2 C-terminal PH domain (residues 174 to 425), GST fusion (Mus musculus, UniProt Q9ERS5).
T1 construct: made in house; host or cells: human embryonic kidney 293 cells (pEBG-2T)
T1 sequence (Q9ERS5 174-425): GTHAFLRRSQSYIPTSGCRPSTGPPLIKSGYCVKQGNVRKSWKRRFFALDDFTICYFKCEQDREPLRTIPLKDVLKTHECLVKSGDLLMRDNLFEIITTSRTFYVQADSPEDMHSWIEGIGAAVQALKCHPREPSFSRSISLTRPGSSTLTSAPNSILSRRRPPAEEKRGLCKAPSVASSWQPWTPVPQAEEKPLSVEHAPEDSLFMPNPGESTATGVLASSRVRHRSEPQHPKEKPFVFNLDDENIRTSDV
The experiment in a line: Protein-lipid overlay. Type of assay: binding. Conditions: protein-lipid overlay (FIG. 2). The method, then: as §1, §2, §3

For assay [3], the target named is human evectin-2 PH domain (residues 1 to 167), GST fusion (Homo sapiens, UniProt Q96CS7). The experiment in a line: Protein-lipid overlay. Type of assay: binding. Particulars: FIG. 2. As to the method: as §1
Chain of human evectin-2 PH domain (residues 1 to 167), GST fusion (Q96CS7 1-167): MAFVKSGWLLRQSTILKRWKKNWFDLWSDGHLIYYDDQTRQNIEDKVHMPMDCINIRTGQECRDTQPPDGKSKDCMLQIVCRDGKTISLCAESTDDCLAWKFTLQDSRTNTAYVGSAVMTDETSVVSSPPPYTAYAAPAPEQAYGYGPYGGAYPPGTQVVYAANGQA
(§4) Cloning of PH domains and preparation of expression constructs. All the human and mouse EST's were obtained from the I.M.A.G.E. Consortium and sequenced. The plant EST (accession number T04439) encoding a full length clone of AtPH1 was obtained from the Arabidopsis Biological Research. Centre (Ohio University). The sequence of each EST was verified and the full length PH domain of each EST was amplified by PCR using the Hi-fidelity PCR system with primers designed to incorporate a Kozak site, an initiating ATG codon followed by a myc epitope tag and a stop codon after the PH domain. […]

In assay [4] the test system is 6 of the PH domains identified (GST fusions). The experiment in a line: Phosphoinositide binding of PH domains (protein-lipid overlay or surface plasmon resonance). Conditions: data not shown. As to the method:
Protein-Lipid overlay. To assess the phosphoinositide binding properties of each PH domain, a protein-lipid overlay assay was performed using the GST fusion proteins as described previously. Briefly, 1 μl of lipid solution containing 1-100 pmol of phospholipids dissolved in a mixture of choroform:methanol:water (1:2:0.8) was spotted onto Hybond-C extra membrane and allowed to dry at room temperature for 1 h. The membrane was blocked in 3% (by mass) fatty acid-free BSA in TBST (50 mM Tris/HCl pH 7.5, 150 mM NaCl and 0.1% Tween-20 (by vol) for lh. The membrane was then incubated overnight at 4° C. with gentle agitation in the same solution containing 0.2 μg/ml of the indicated GST fusion protein. The membranes were washed 6 times over 30 min in TBST and then incubated for 1 h with 1/1000 dilution of anti-GST monoclonal antibody (Sigma). The membranes were washed as before, then incubated for 1 h with 1/5000 dilution of anti-mouse-HRP conjugate (Pierce). Finally, the membranes were washed 12 times over 1 h in TBST and the GST-fusion protein bound to the membrane by virtue of its interaction with phospholipid was detected by enhanced chemiluminescence. […]
We studied the specificity and affinity of interaction of the PH domains for phosphoinositide lipids using either a “protein-lipid overlay” assay (FIG. 2) or the more quantitative surface plasmon resonance based approach (Table 2). […]
For orientation: Surface plasmon resonance follows binding to a sensor surface in real time, without labels.

The test system of assay [5] is GST-DAPP1. Conditions: control; cited from earlier work.
The test system of assay [6] is GST-GRP1. Conditions: control; cited from earlier work.
Assay [7] addresses human FAPP1 PH domain (residues 1 to 99), GST fusion (Homo sapiens, UniProt Q9HB20). Briefly: Protein-lipid overlay. Type of assay: binding. Particulars: FIG. 2 and Table 2. The method, then: as §1
(§5) Protein-Lipid overlay. To assess the phosphoinositide binding properties of each PH domain, a protein-lipid overlay assay was performed using the GST fusion proteins as described previously. Briefly, 1 μl of lipid solution containing 1-100 pmol of phospholipids dissolved in a mixture of choroform:methanol:water (1:2:0.8) was spotted onto Hybond-C extra membrane and allowed to dry at room temperature for 1 h. […]

Assay [8] concerns human phospholipase Cδ1 PH domain (residues 20 to 184), GST fusion. Particulars: control; cited from earlier work.
Assay [9] deals with T2, human PEPP1 PH domain (Ser-Ala-Ser to Arg-Pro-Gln, accession N31123), GST fusion (Homo sapiens, UniProt Q9H4M7).
T2 construct: DNA probe corresponding to the N-terminal 15 to 169 residues of PEPP1; made in house; host or cells: E. coli BL21 (pGEX4T-1)
T2 sequence (Q9H4M7 15-169): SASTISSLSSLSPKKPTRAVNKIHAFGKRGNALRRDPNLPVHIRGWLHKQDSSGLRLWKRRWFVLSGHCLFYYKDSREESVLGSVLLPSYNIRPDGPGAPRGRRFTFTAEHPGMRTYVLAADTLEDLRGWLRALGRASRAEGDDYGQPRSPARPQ
Briefly: Surface plasmon resonance (BIACore), GST fusion binding to phosphoinositide in supported lipid monolayer. Particulars: supported phosphatidylcholine monolayers, 1:1 binding model, NB, no binding detected, read-out: Apparent Kd.
From the text: as §4
(§6) Expression of GST-PH domains in E.coli. The pGEX4T-1 constructs encoding the PH domains of FAPP1, AtPH1, PEPP1, LL5α, LL5β, evectin-2 and PH30 were transformed into BL21 E.coli cells and a 0.5 L culture was grown at 37° C. in Luria Broth containing 100 μg/ml ampicillin, until the absorbance at 600 nm was 0.6. […]
(§7) Kinetic analyses of the interactions between the GST PH domain fusions and the polyphosphoinositides were made using surface plasmon resonance based procedures as described previously, with the following modifications. […] Data were analysed using the bimolecular interaction model and the global fitting feature of the BIAevaluation 3 software for several sensorgrams at different protein concentrations. […]

Assay [10] deals with T3, human FAPP1 PH domain (residues 1 to 99, accession W32183), GST fusion (Homo sapiens, UniProt Q9HB20).
T3 construct: made in house; host or cells: E. coli BL21 (pGEX4T-1)
T3 sequence (Q9HB20 1-99, one chain of several): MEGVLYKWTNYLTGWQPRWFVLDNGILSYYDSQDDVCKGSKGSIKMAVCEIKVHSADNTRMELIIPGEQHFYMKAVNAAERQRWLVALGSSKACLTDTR
Described as above. Conditions: supported phosphatidylcholine monolayers, 1:1 binding model, NB, no binding detected, read-out: Apparent Kd.
From the text: as §4, §6, §7

Assay [11] addresses human FAPP2 (accession AF380162), GST fusion (Homo sapiens, UniProt Q96JA3). The experiment in a line: Protein-lipid overlay. Type of assay: binding. Particulars: FIG. 11. The method, then:
as §1
Methods used are equivalent to those specified in the legend to FIG. 2.
as §5

Assay [12] deals with mouse centaurin-β2 PH domain (residues 266 to 390), GST fusion (Mus musculus, UniProt Q6ZQK5). The experiment in a line: Protein-lipid overlay. Type of assay: binding. Particulars: FIG. 2. As to the method:
as §1, §4

Each structure is given as a SMILES string.

Chain of human FAPP1 PH domain (residues 1 to 99), GST fusion (Q9HB20 1-99): as the sequence (Q9HB20 1-99, one chain of several) above
Chain of human FAPP2 (accession AF380162), GST fusion (Q96JA3 whole entry, the tested form may be a part): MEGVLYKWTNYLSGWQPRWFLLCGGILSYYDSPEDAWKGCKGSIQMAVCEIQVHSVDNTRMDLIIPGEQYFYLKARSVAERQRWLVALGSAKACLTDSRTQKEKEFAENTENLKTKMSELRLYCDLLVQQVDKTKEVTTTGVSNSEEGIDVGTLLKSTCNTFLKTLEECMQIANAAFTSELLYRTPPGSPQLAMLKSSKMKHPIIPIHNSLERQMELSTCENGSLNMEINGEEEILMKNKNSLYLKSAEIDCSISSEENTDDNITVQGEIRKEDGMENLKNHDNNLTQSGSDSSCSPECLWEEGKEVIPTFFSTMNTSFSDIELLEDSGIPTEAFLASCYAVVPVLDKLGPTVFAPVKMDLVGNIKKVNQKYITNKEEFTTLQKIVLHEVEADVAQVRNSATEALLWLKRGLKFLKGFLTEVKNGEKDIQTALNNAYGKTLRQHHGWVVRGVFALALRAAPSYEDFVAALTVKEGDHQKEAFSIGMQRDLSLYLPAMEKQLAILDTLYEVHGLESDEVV
Chain of mouse centaurin-β2 PH domain (residues 266 to 390), GST fusion (Q6ZQK5 266-390): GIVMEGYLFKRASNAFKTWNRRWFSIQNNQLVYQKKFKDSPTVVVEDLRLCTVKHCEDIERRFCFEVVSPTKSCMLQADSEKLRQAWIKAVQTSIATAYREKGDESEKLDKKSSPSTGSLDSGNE

Consider `CCCCCCCCCCCCCCCC(=O)OC[C@H](COP(=O)(O)O[C@H]1[C@H](O)[C@@H](OP(=O)(O)O)[C@H](OP(=O)(O)O)[C@@H](OP(=O)(O)O)[C@H]1O)OC(=O)CCCCCCCCCCCCCCC` [PtdIns(3,4,5)P3, phospatidylinositol (3,4,5)-trisphosphate], for which the phosphoinositide binding entry in assay [1] is listed as “did not bind”; in [2], “did not bind”; in [3], “moderate affinity”; in assay [4], “did not bind”; in [5], “binds”; in assay [6], “binds only”.

Turning to `CCCCCCCCCCCCCCCC(=O)OC[C@H](COP(=O)(O)O[C@@H]1[C@H](O)[C@H](O)[C@@H](OP(=O)(O)O)[C@H](OP(=O)(O)O)[C@H]1O)OC(=O)CCCCCCCCCCCCCCC` [PtdIns(4,5)P2, phosphatidylinositol 4,5-bisphosphate], the phosphoinositide binding result in assay [7] is on record as “does not interact”; in assay [8] it was “binds only”.

In the case of `CCCCCCCCCCCCCCCC(=O)OC[C@H](COP(=O)(O)O[C@@H]1[C@H](O)[C@H](OP(=O)(O)O)[C@@H](O)[C@H](O)[C@H]1O)OC(=O)CCCCCCCCCCCCCCC` [PtdIns3P], in assay [9], the Kd was 325 nM.

Turning to `CCCCCCCCCCCCCCCC(=O)OC[C@H](COP(=O)(O)O[C@H]1[C@H](O)[C@@H](O)[C@H](OP(=O)(O)O)[C@@H](O)[C@H]1O)OC(=O)CCCCCCCCCCCCCCC` [PtdIns4P, phosphoinositol 4-monophosphate], the Kd in assay [10] was determined as 20 nM. Further, the phosphoinositide binding entry was “only binds” in [7], “binds specifically” in assay [11] and “specifically binds” in assay [11] (listed as PtdIns-4P).

`CCCCCCCCCCCCCCCC(=O)OC[C@H](COP(=O)(O)O[C@@H]1[C@H](O)[C@H](OP(=O)(O)O)[C@@H](O)[C@H](OP(=O)(O)O)[C@H]1O)OC(=O)CCCCCCCCCCCCCCC` [PtdIns(3,5)P2]: the phosphoinositide binding result in assay [12] is recorded as “moderate affinity”.
